Assay results published in ChEMBL document CHEMBL1201862, “PubChem BioAssay data set” (2004).
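In this assay, cells in 96-well plates receive the compound at five concentrations for 48 hours. Endpoints are linearly interpolated between the surrounding concentrations. The concentration for 50% growth inhibition is given as GI50.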 The source made the active and inactive calls. Rule as the data show it: active = GI50 up to about 1.1 µM and inactive = higher.

Legend:
Test in all cases: inhibition of tumour cell growth, NCI panel, 48 h
[1] = system: 786-0
[2] = system: A498
[3] = system: A549
[4] = system: ACHN
[5] = system: CAKI-1
[6] = system: CCRF-CEM
[7] = system: COLO 205
[8] = system: DU-145
[9] = system: EKVX
[10] = system: HCC 2998
[11] = system: HCT-116
[12] = system: HCT-15
[13] = system: HL-60
[14] = system: HOP-62
[15] = system: HOP-92
[16] = system: HT-29
[17] = system: Hs-578T
[18] = system: IGROV-1
[19] = system: K562
[20] = system: KM12
[21] = system: LOX IMVI
[22] = system: M14
[23] = system: MCF7
[24] = system: MDA-MB-231
[25] = system: MDA-MB-435
[26] = system: MDA-N
[27] = system: Malme-3M
[28] = system: NCI-H226
[29] = system: NCI-H23
[30] = system: NCI-H460
[31] = system: NCI-H522
[32] = system: NCI/ADR-RES
[33] = system: OVCAR-3
[34] = system: OVCAR-4
[35] = system: OVCAR-5
[36] = system: OVCAR-8
[37] = system: PC-3
[38] = system: RPMI-8226
[39] = system: RXF 393
[40] = system: SF-268
[41] = system: SF-295
[42] = system: SF-539
[43] = system: SK-MEL-28
[44] = system: SK-MEL-5
[45] = system: SK-OV-3
[46] = system: SN12C
[47] = system: SNB-19
[48] = system: SNB-75
[49] = system: SR
[50] = system: SW-620
[51] = system: T47D
[52] = system: TK-10
[53] = system: U-251
[54] = system: UACC-257
[55] = system: UACC-62

Compound: CC1(C)N=c2c(ncn2CCCO)=C(C(N)=O)N1
- GI50 [1]: > 100 µM (inactive)
- GI50 [2]: > 100 µM (inactive)
- GI50 [3]: > 100 µM (inactive)
- GI50 [4]: > 100 µM (inactive)
- GI50 [5]: > 100 µM (inactive)
- GI50 [6]: > 100 µM (inactive)
- GI50 [7]: > 100 µM (inactive)
- GI50 [8]: > 100 µM (inactive)
- GI50 [9]: > 100 µM (inactive)
- GI50 [10]: > 100 µM (inactive)
- GI50 [11]: > 100 µM (inactive)
- GI50 [12]: > 100 µM
- GI50 [13]: > 100 µM (inactive)
- GI50 [14]: > 100 µM (inactive)
- GI50 [15]: > 100 µM (inactive)
- GI50 [16]: > 100 µM (inactive)
- GI50 [17]: > 100 µM (inactive)
- GI50 [18]: > 100 µM (inactive)
- GI50 [19]: > 100 µM (inactive)
- GI50 [20]: > 100 µM (inactive)
- GI50 [21]: > 100 µM (inactive)
- GI50 [22]: > 100 µM (inactive)
- GI50 [23]: > 100 µM (inactive)
- GI50 [24]: > 100 µM (inactive)
- GI50 [25]: > 100 µM (inactive)
- GI50 [26]: > 100 µM (inactive)
- GI50 [27]: > 100 µM (inactive)
- GI50 [28]: > 100 µM (inactive)
- GI50 [29]: > 100 µM (inactive)
- GI50 [30]: > 100 µM (inactive)
- GI50 [31]: > 100 µM (inactive)
- GI50 [32]: > 100 µM (inactive)
- GI50 [33]: > 100 µM (inactive)
- GI50 [34]: > 100 µM (inactive)
- GI50 [35]: > 100 µM (inactive)
- GI50 [36]: > 100 µM (inactive)
- GI50 [37]: > 100 µM (inactive)
- GI50 [38]: > 100 µM (inactive)
- GI50 [39]: > 100 µM (inactive)
- GI50 [40]: > 100 µM (inactive)
- GI50 [41]: > 100 µM (inactive)
- GI50 [42]: > 100 µM (inactive)
- GI50 [43]: > 100 µM (inactive)
- GI50 [44]: > 100 µM (inactive)
- GI50 [45]: > 100 µM (inactive)
- GI50 [46]: > 100 µM (inactive)
- GI50 [47]: > 100 µM (inactive)
- GI50 [48]: 60.4 µM (inactive)
- GI50 [49]: > 100 µM (inactive)
- GI50 [50]: > 100 µM (inactive)
- GI50 [51]: > 100 µM (inactive)
- GI50 [52]: > 100 µM (inactive)
- GI50 [53]: > 100 µM (inactive)
- GI50 [54]: > 100 µM (inactive)
- GI50 [55]: > 100 µM (inactive)
